Laboratory results as given in patent US20140323521A1, “PHARMACEUTICAL COMPOSITIONS AND ADMINISTRATIONS THEREOF” (Vertex Pharmaceuticals Incorporated, priority 2011, published 2014).

Experiments:
Test in all cases: FRT cell Ussing chamber chloride transport assay
Assay type in all cases: cell-based
human CFTR mutant S549N = target: T1, human CFTR mutant S549N (Homo sapiens, UniProt P13569, S549N); details: FRT cells expressing S549N CFTR
T1 construct: expressed in transfected cells; host or cells: Fisher rat thyroid (FRT) FlpIn cells, pcDNA5/FRT
Description: (§1) DNA cloning: Wild-type CFTR coding region was inserted into pcDNA5/FRT (Invitrogen, San Diego, Calif.) between EcoRV and ApaI.
(§2) Single CFTR gene mutations were introduced into the wild-type CFTR coding sequence by using QuickChange XL site-directed mutagenesis kit (Stratagene, Cambridge, UK). The CFTR coding region as well as its promoter sequence and 3′ untranslated sequence was fully sequenced to confirm the mutagenesis reaction.
(§3) The CFTR gene was stably expressed in Fisher rat thyroid (FRT) cells through FlpIn system. The FRT-FlpIn host cell line was generated by stably transfecting FRT cells with pFRT/lacZeo. The single integration of a FRT site was confirmed by Southern blot. After the mutant CFTR DNA was transfected into the FRT-FlpIn host cell line, the cells were incubate at 37° C. in Coon's modified Ham's F12 containing 10% FBS, 1% Pen/Strep, and 36 ml of Na-Bicarbonate for up to 8 passages under hygromycin selection (200 ug/ml).
(§4) All cells were grown on Costar® Snapwell™ cell culture inserts at maintained at 37° C. prior to recording. The cell culture inserts were mounted into an Ussing chamber (VCC MC8; Physiologic Instruments, Inc., San Diego, Calif.) to record ISC in the voltage-clamp mode (Vhold=0 mV). For FRT cells, the basolateral membrane was permeabilized with 360 μg/ml Nystatin and a basolateral to apical Cl− gradient was established. The basolateral bath solution contained (in mM); 135 NaCl, 1.2 CaCl2, 1.2 MgCl2, 2.4 K2HPO4, 0.6 KHPO4, 10 N-2-hydroxyethylpiperazine-N′-2-ethanesulfonic acid (HEPES), and 10 dextrose (titrated to pH 7.4 with NaOH). The apical NaCl was replaced by equimolar Na+ gluconate (titrated to pH 7.4 with NaOH). For HBE cells, the ISC was measured in the presence of a basolateral to apical Cl− gradient. The normal Cl− solution contained (in mM) 145 NaCl, 3.3 K2HPO4, 1.2 MgCl2, 1.2 CaCl2, 10 Glucose, 10 HEPES (pH adjusted to 7.35 with NaOH) and the low Cl− solution contained (in mM) 145 NaGluconate, 1.2 MgCl2, 1.2 CaCl2, 10 glucose, 10 HEPES (pH adjusted to 7.35 with NaOH). All recordings were digitally acquired using a Acquire and Analyze software (version 2; Physiologic Instruments, Inc. San Diego, Calif.).
(§5) The 10 μM forskolin stimulated response in FRT cell expressing different mutant CFTR forms or in HBE cells isolated from CF patients was normalized to the 10 μM forskolin-stimulated response in FRT cells expressing wild-type CFTR or in HBE isolated from non-CF individuals and expressed as % wild-type CFTR. In HBE, amiloride was added prior to forskolin application to block the epithelial Na+ channel.

human CFTR mutant S1251N = target: T2, human CFTR mutant S1251N (Homo sapiens, UniProt P13569, S1251N); details: FRT cells expressing S1251N CFTR
T2 construct: expressed in transfected cells; host or cells: Fisher rat thyroid (FRT) FlpIn cells, pcDNA5/FRT
Description: as §1, §2, §3, §4, §5

human CFTR mutant G970R = target: T3, human CFTR mutant G970R (Homo sapiens, UniProt P13569, G970R); details: FRT cells expressing G970R CFTR
T3 construct: expressed in transfected cells; host or cells: Fisher rat thyroid (FRT) FlpIn cells, pcDNA5/FRT
Description: as §1, §2, §3, §4, §5

human CFTR mutant G1244E = target: T4, human CFTR mutant G1244E (Homo sapiens, UniProt P13569, G1244E); details: FRT cells expressing G1244E CFTR
T4 construct: expressed in transfected cells; host or cells: Fisher rat thyroid (FRT) FlpIn cells, pcDNA5/FRT
Description: as §1, §2, §3, §4, §5

human CFTR mutant G178R = target: T5, human CFTR mutant G178R (Homo sapiens, UniProt P13569, G178R); details: FRT cells expressing G178R CFTR
T5 construct: expressed in transfected cells; host or cells: Fisher rat thyroid (FRT) FlpIn cells, pcDNA5/FRT
Description: as §1, §2, §3, §4, §5

human CFTR mutant G1349D = target: T6, human CFTR mutant G1349D (Homo sapiens, UniProt P13569, G1349D); details: FRT cells expressing G1349D CFTR
T6 construct: expressed in transfected cells; host or cells: Fisher rat thyroid (FRT) FlpIn cells, pcDNA5/FRT
Description: as §1, §2, §3, §4, §5

human CFTR mutant S1255P = target: T7, human CFTR mutant S1255P (Homo sapiens, UniProt P13569, S1255P); details: FRT cells expressing S1255P CFTR
T7 construct: expressed in transfected cells; host or cells: Fisher rat thyroid (FRT) FlpIn cells, pcDNA5/FRT
Description: as §1, §2, §3, §4, §5

human CFTR mutant S549R = target: T8, human CFTR mutant S549R (Homo sapiens, UniProt P13569, S549R); details: FRT cells expressing S549R CFTR
T8 construct: expressed in transfected cells; host or cells: Fisher rat thyroid (FRT) FlpIn cells, pcDNA5/FRT
Description: as §1, §2, §3, §4, §5

human CFTR mutant G551S = target: T9, human CFTR mutant G551S (Homo sapiens, UniProt P13569, G551S); details: FRT cells expressing G551S CFTR
T9 construct: expressed in transfected cells; host or cells: Fisher rat thyroid (FRT) FlpIn cells, pcDNA5/FRT
Description: as §1, §2, §3, §4, §5

Measured: increase in chloride transport, relative to baseline chloride transport

T7 sequence (P13569 whole entry S1255P): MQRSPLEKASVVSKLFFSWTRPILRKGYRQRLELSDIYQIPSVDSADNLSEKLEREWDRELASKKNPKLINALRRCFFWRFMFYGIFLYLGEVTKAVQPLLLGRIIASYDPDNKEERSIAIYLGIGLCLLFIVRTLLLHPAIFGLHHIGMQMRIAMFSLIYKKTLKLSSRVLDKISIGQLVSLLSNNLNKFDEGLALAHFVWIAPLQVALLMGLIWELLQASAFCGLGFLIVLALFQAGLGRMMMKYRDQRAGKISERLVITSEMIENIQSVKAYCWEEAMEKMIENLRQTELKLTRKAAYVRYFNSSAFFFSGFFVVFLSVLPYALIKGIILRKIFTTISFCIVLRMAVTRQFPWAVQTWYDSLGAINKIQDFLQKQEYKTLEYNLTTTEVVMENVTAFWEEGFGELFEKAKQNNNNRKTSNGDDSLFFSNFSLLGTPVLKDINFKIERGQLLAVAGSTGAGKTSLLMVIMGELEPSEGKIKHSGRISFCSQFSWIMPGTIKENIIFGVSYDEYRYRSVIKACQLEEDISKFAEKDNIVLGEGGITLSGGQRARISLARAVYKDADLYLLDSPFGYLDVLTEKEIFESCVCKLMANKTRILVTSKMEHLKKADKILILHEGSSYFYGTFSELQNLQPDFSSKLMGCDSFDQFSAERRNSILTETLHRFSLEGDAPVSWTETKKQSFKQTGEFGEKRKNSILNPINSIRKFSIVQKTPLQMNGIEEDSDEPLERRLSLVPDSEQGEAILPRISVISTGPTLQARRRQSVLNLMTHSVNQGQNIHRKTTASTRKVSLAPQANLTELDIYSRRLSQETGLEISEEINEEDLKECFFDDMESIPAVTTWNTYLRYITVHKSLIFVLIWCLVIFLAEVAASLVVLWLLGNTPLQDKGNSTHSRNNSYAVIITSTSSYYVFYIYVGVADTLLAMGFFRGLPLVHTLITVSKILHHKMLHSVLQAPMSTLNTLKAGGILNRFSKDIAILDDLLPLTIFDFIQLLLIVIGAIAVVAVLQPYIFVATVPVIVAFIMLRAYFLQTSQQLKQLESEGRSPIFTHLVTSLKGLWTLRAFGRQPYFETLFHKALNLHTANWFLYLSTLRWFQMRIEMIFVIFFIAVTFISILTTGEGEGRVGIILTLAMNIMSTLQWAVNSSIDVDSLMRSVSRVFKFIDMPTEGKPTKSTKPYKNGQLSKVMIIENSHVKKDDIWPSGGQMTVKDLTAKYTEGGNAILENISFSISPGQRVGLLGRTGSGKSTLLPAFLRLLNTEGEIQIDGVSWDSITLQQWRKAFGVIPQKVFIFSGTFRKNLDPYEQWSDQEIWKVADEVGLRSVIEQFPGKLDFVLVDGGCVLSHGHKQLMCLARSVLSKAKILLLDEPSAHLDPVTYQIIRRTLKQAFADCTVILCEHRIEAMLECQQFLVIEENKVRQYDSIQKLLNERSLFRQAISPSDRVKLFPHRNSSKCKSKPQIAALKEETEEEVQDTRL
T2 sequence (P13569 whole entry S1251N): as the sequence (P13569 whole entry S1255P) above, with S1251N, P1255S counted along it
T4 sequence (P13569 whole entry G1244E): as the sequence (P13569 whole entry S1255P) above, with G1244E, P1255S counted along it
T3 sequence (P13569 whole entry G970R): as the sequence (P13569 whole entry S1255P) above, with G970R, P1255S counted along it
T5 sequence (P13569 whole entry G178R): as the sequence (P13569 whole entry S1255P) above, with G178R, P1255S counted along it
T9 sequence (P13569 whole entry G551S): as the sequence (P13569 whole entry S1255P) above, with G551S, P1255S counted along it
T8 sequence (P13569 whole entry S549R): as the sequence (P13569 whole entry S1255P) above, with S549R, P1255S counted along it
T1 sequence (P13569 whole entry S549N): as the sequence (P13569 whole entry S1255P) above, with S549N, P1255S counted along it
T6 sequence (P13569 whole entry G1349D): as the sequence (P13569 whole entry S1255P) above, with P1255S, G1349D counted along it

CC(C)(C)c1cc(C(C)(C)C)c(NC(=O)c2c[nH]c3ccccc3c2=O)cc1O [Compound 1, N-[2,4-bis(1,1-dimethylethyl)-5-hydroxyphenyl]-1,4-dihydro-4-oxoquinoline-3-carboxamide]
greater than 10 fold: all assays above
